Holding throughout (test): NCI anticancer screen, dose series, 48 h
In test [1] the test system is LOX IMVI.
Test [2] has as its system SW-620.
Test [3] has as its system HT-29.
The subject of test [4] is RXF 393.
The subject of test [5] is UACC-257.
In test [6] the test system is SK-MEL-28.
Test [7] relates to SK-OV-3.
Test [8] has as its system NCI-H226.
Test [9] has as its system U-251.
The subject of test [10] is EKVX.
In test [11] the test system is HOP-92.
In test [12] the test system is COLO 205.
Test [13] has as its system SNB-19.
Test [14] deals with SF-539.
Test [15] has as its system NCI-H23.
The test system of test [16] is NCI/ADR-RES.
Test [17] relates to PC-3.
The test system of test [18] is MDA-MB-231.
The test system of test [19] is MCF7.

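Where inhibition never reached the appropriate level, the endpoint shown equals the highest concentration tested. Otherwise, values were interpolated linearly from a five-concentration, 48-hour dose response in 96-well plates. At the GI50, growth is halved.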 The source made the active and inactive calls. No stated cut-off is given here; in the data, active = GI50 up to about 1.1 µM and inactive = higher. Bounds are passed on as bounds.

As for `Cc1ccc(NC(=O)CCc2nnc(N)o2)cc1`, the GI50 in [1], in [2], in test [3], in [4], in test [5] and in test [6] was > 100 µM (inactive) in each case. Moreover, the GI50 in [7], in test [8], in test [9], in test [10], in test [11] and in test [12] was > 100 µM (inactive) throughout. The GI50 in [13], in [14] and in test [15] was > 100 µM (inactive) throughout.
On to `CCOC(=O)C1=C(O)C(=O)c2cc(OC)ccc2C1=O`, for which the GI50 was 55.2 µM (inactive) in test [1]; > 100 µM (inactive) in test [2]; > 100 µM (inactive) in test [3]; > 100 µM (inactive) in test [4]; 35.1 µM (inactive) in test [5]; > 100 µM (inactive) in test [6]. In addition, the GI50 was > 100 µM (inactive) in [7]; 38.5 µM (inactive) in test [8]; > 100 µM (inactive) in test [9]; > 100 µM (inactive) in test [10]; > 100 µM (inactive) in test [11]; > 100 µM (inactive) in test [12]. Besides, the results for the GI50 in [13], in test [14] and in test [15] were 38.9 µM (inactive), 65.9 µM (inactive) and 31.8 µM (inactive), respectively.
As to `CC(=O)Nc1ccc(C(=O)NN2C(=O)C(Cl)C2c2ccc([N+](=O)[O-])cc2)cc1` (stereo not given), the GI50 in test [1], in test [2], in [3], in test [4], in test [5] and in test [6] was > 100 µM (inactive) throughout. For the same molecule, the GI50 in test [7], in [8], in [9], in test [10], in test [11] and in test [12] was > 100 µM (inactive) each time. The GI50 in test [13], in test [14] and in test [15] was > 100 µM (inactive) in each case.
Regarding `NC(CCC(=O)NC(CSC(=O)N(O)c1ccccc1)C(=O)NCC(=O)O)C(=O)O` (stereo not given), the GI50 in test [1], in [2], in test [3], in test [4], in test [5] and in test [6] was > 1000 µM (inactive) throughout. Moreover, the GI50 in [7], in test [8], in [9], in test [10], in test [11] and in test [12] was > 1000 µM (inactive) each time. Besides, the GI50 in test [13], in test [14] and in test [15] was > 1000 µM (inactive) each time.
In the case of `COc1ccc(/C(Cl)=C(\C=O)c2ccc(Br)cc2)cc1OC`, the GI50 was 18.3 µM (inactive) in test [1]; > 100 µM (inactive) in test [2]; > 100 µM (inactive) in test [3]; 20.7 µM (inactive) in [4]; > 100 µM (inactive) in test [5]; > 100 µM (inactive) in test [6]. The GI50 in test [7] was > 100 µM (inactive); in test [8], 19.5 µM (inactive); in [9] it was 32.8 µM (inactive); in test [10], > 48.4 µM (inactive); in test [11], 17.7 µM (inactive); in test [12], > 100 µM (inactive). For the same molecule, the GI50 in test [13] is 26.3 µM (inactive); in [14], 26.1 µM (inactive); in [15], 64.7 µM (inactive).
For `CC1CC(N2CCOCC2)=Nc2ccccc2N1C` (stereo not given), the GI50 in test [2], in test [16], in test [3], in test [4], in [5] and in [6] was > 100 µM (inactive) in each case. For the same molecule, the GI50 in test [7], in test [8], in [9], in test [10], in test [17] and in [12] was > 100 µM (inactive) in each case. The GI50 was > 100 µM (inactive) in [13], > 100 µM (inactive) in test [18], > 100 µM (inactive) in [14] and 80 µM (inactive) in [15].
In the case of `CC(=O)OI1NC(=O)c2ccccc21`, the GI50 in [1] is > 100 µM (inactive); in [2] it was > 100 µM (inactive); in test [19] it was 93.5 µM (inactive); in test [16], > 100 µM (inactive); in [3] it was > 100 µM (inactive); in test [6], > 100 µM (inactive). Moreover, the GI50 in test [7], in test [8], in test [9], in test [10], in [11] and in test [17] was > 100 µM (inactive) in each case. The GI50 in test [12], in [13], in test [18] and in test [15] was > 100 µM (inactive) each time.
As for `FC(F)(F)c1ccc2nc(NCc3ccccc3)c(-c3ccccc3)nc2c1`, the GI50 in test [1] was 26.3 µM (inactive); in test [2] it was 49.4 µM (inactive); in [3] it was 36 µM (inactive); in [4], 20.4 µM (inactive); in test [5], 28.1 µM (inactive); in test [6], 84.9 µM (inactive). Further, the GI50 in test [7] is 38.4 µM (inactive); in [8], 37.8 µM (inactive); in test [9], 21 µM (inactive); in test [10], 62.2 µM (inactive); in test [11] it was 0.521 µM (active); in test [12] it was 37.2 µM (inactive). Further, the GI50 in test [13] was 46.2 µM (inactive); in [14] it was 30.2 µM (inactive); in test [15], 53.7 µM (inactive).
For `O=C1c2ccsc2C(=O)c2sc(CO)cc21`, the GI50 in test [1] was < 0.0176 µM (active); in [2] it was 0.0564 µM (active); in test [16], 0.0845 µM (active); in [3] it was 0.219 µM (active); in test [4], 1.09 µM (active); in [5] it was 0.0456 µM (active). Moreover, the GI50 in test [6] was 0.0307 µM (active); in test [7], 1.11 µM (active); in test [8], 0.243 µM (active); in test [9], 0.156 µM (active); in test [10], 1.65 µM (inactive); in test [11], 0.333 µM (active). For the same molecule, the GI50 in [17] is 0.126 µM (active); in test [12], 0.817 µM (active); in test [13], 0.0929 µM (active); in [18], 0.159 µM (active); in test [14] it was 0.0469 µM (active); in test [15] it was 0.0322 µM (active).
